Results from ChEMBL document CHEMBL5303304, “EUbOPEN Chemogenomics Library - IncuCyte” (2023).

How the values were obtained:
Type in all cases: toxicity, cell-based
[1] = tested on: Fibroblast; assay: Incucyte cell viability with human fibroblast; settings: 10 µM, compound concentration 10 uM
[2] = tested on: HEK-293T; assay: Incucyte cell viability with HEK293T; settings: human, 10 µM, compound concentration 10 uM
[3] = tested on: U2OS; assay: Incucyte cell viability with U2OS; settings: human, 10 µM, compound concentration 10 uM
Further: unitless GR value; below 1 slowed growth and below 0 cell loss.

| SMILES | Growth Rate ([1]; 0 h, replicate number 2) | Growth Rate ([1]; 6 h, replicate number 1) | Growth Rate ([1]; 6 h, replicate number 2) | Growth Rate ([1]; 12 h, replicate number 1) | Growth Rate ([1]; 12 h, replicate number 2) | Growth Rate ([1]; 18 h, replicate number 1) | Growth Rate ([1]; 18 h, replicate number 2) | Growth Rate ([1]; 24 h, replicate number 1) | Growth Rate ([2]; 0 h, replicate number 1) | Growth Rate ([2]; 18 h, replicate number 2) | Growth Rate ([2]; 24 h, replicate number 2) | Growth Rate ([3]; 0 h, replicate number 1) | Growth Rate ([3]; 6 h, replicate number 2) | Growth Rate ([1]; 0 h, replicate number 1) | Growth Rate ([3]; 12 h, replicate number 2) | Growth Rate ([3]; 18 h, replicate number 2) | Growth Rate ([3]; 24 h, replicate number 2) | Growth Rate ([2]; 6 h, replicate number 2) | Growth Rate ([2]; 12 h, replicate number 2) | Growth Rate ([3]; 24 h, replicate number 1) | further results |
| --- | --- | --- | --- | --- | --- | --- | --- | --- | --- | --- | --- | --- | --- | --- | --- | --- | --- | --- | --- | --- | --- |
| COc1ccccc1S(=O)(=O)Nc1ccc2c(c1)CN(C)C(=O)N2 | 0.57 | 0.3 | -0.15 | 0.4 | 0.42 | 0.37 | 0.7 | 0.79 | 0.51 | 0.98 | 0.9 | -0.66 | 0.5 | – | – | – | – | – | – | – | Growth Rate ([2]; 0 h, replicate number 2): -0.37; Growth Rate ([3]; 0 h, replicate number 2): -0.75; Growth Rate ([3]; 6 h, replicate number 1): 0.81; Growth Rate ([3]; 12 h, replicate number 1): 0.83 |
| CNc1ncc2cc(-c3ccc(-c4cccc(C)n4)cc3Cl)c(=O)n(C[C@H]3OC[C@H](N)CO3)c2n1 | -0.44 | – | 0.69 | 0.36 | 0.19 | 0.37 | 0.14 | 0.41 | -0.96 | – | – | 0.31 | 0.37 | 0.26 | 0.83 | 0.77 | 0.53 | – | – | – | Growth Rate ([1]; 24 h, replicate number 2): 0.16 |
| CN1CCN(c2ccc(-n3cc(-c4ccncc4OCC4CCNCC4)cn3)cc2)CC1 | 0.21 | 0.93 | 0.33 | 0.81 | 0.22 | 0.68 | 0.19 | 0.62 | -0.6 | 0.13 | 0.07 | – | 0.51 | 0.3 | 0.4 | 0.31 | 0.16 | -0.17 | 0.09 | 0.53 | Growth Rate ([1]; 24 h, replicate number 2): 0.28; Growth Rate ([2]; 6 h, replicate number 1): -0.15; Growth Rate ([2]; 12 h, replicate number 1): 0.02; Growth Rate ([2]; 18 h, replicate number 1): 0.14; Growth Rate ([2]; 24 h, replicate number 1): 0.11; Growth Rate ([3]; 0 h, replicate number 2): 0.97; Growth Rate ([3]; 12 h, replicate number 1): 0.92; Growth Rate ([3]; 18 h, replicate number 1): 0.69 |
| CCc1c(-c2ccc3[nH]ncc3c2)cnc(N)c1-c1ccc(O)cc1 | -0.31 | 0.91 | – | – | – | – | – | – | -0.12 | 0.91 | 0.88 | – | 0.84 | – | – | – | – | 0.91 | 0.9 | 0.92 | Growth Rate ([2]; 6 h, replicate number 1): 0.85; Growth Rate ([2]; 12 h, replicate number 1): 0.8; Growth Rate ([2]; 24 h, replicate number 1): 0.99; Growth Rate ([3]; 0 h, replicate number 2): -0.93 |
| NC(=O)C1CCCc2c1[nH]c1ccc(Cl)cc21 (configuration not stated) | 0.51 | – | – | – | 0.9 | – | – | – | 0.75 | 0.66 | 0.79 | 0.85 | – | – | – | – | 0.96 | 0.22 | 0.53 | 1 | Growth Rate ([1]; 24 h, replicate number 2): 0.88; Growth Rate ([2]; 0 h, replicate number 2): -0.98; Growth Rate ([3]; 0 h, replicate number 2): 0.68; Growth Rate ([3]; 6 h, replicate number 1): 0.7; Growth Rate ([3]; 12 h, replicate number 1): 1; Growth Rate ([3]; 18 h, replicate number 1): 0.88 |
| Cc1ncsc1-c1ccc(CNC(=O)[C@@H]2C[C@@H](O)CN2C(=O)[C@@H](NC(=O)CCCCNC(=O)c2ccc(-c3ccc(N4CCN(C)CC4)c(NC(=O)c4c[nH]c(=O)cc4C(F)(F)F)c3)cc2)C(C)(C)C)cc1 | 0.64 | 0.29 | – | 0.65 | 0.74 | 0.33 | 0.86 | 0.46 | -0.12 | 0.86 | 0.72 | 0.71 | 0.89 | 0.97 | 0.84 | 0.79 | 0.71 | 0.8 | – | 0.61 | Growth Rate ([3]; 6 h, replicate number 1): 0.86; Growth Rate ([3]; 18 h, replicate number 1): 0.96 |
| O=C(CNCc1cc2ccccc2[nH]1)N[C@H]1CC[C@@H](c2nc3ccccc3[nH]2)CC1 | 0.8 | 0.9 | 0.7 | 0.79 | 0.69 | 0.78 | – | 0.78 | -0.1 | 0.77 | 0.89 | -0.05 | 1 | – | – | – | – | 0.27 | 0.76 | 0.8 | Growth Rate ([2]; 0 h, replicate number 2): -0.87; Growth Rate ([3]; 6 h, replicate number 1): 0.65; Growth Rate ([3]; 12 h, replicate number 1): 0.55; Growth Rate ([3]; 18 h, replicate number 1): 0.82 |
| COc1cc(-c2cncc(-c3ccc(N4CCN(C(C)C)CC4)cc3)c2C)cc(F)c1C(=O)N1CCCC1 | 0.49 | – | -0.22 | – | 0.11 | 0.73 | 0.27 | 0.76 | -0.5 | – | 0.92 | – | – | -0.08 | 1 | 0.99 | 0.89 | – | – | – | Growth Rate ([1]; 24 h, replicate number 2): 0.4; Growth Rate ([2]; 0 h, replicate number 2): -0.2 |
| CC(=O)N1CCN([C@H]2CCC[C@@H](NC(=O)c3cc4c(F)ccc(C)c4[nH]3)C2)CC1.O=C(O)C(F)(F)F | -0.08 | – | 0.42 | – | 0.88 | – | 0.88 | – | 0.94 | 0.68 | 0.48 | 0.28 | 0.95 | -0.07 | 0.96 | 0.94 | 0.88 | 0.46 | 0.4 | 0.99 | Growth Rate ([1]; 24 h, replicate number 2): 0.9; Growth Rate ([2]; 0 h, replicate number 2): -0.6; Growth Rate ([2]; 6 h, replicate number 1): 0.9; Growth Rate ([2]; 12 h, replicate number 1): 0.75; Growth Rate ([3]; 0 h, replicate number 2): 0.78; Growth Rate ([3]; 12 h, replicate number 1): 0.84 |
| CC(=O)O.Cc1cc2c(ncn2C2(C)CN(C(=O)c3ccn(CC4CCN([C@H]5C=CCCCC5)CC4)c3)C2)c(N)n1 | 0.45 | – | 0.25 | 0.9 | 0.83 | 0.86 | 0.98 | – | -0.66 | – | – | 0.51 | – | – | – | – | – | – | – | 0.75 | Growth Rate ([3]; 6 h, replicate number 1): 0.96 |
| CN1CCc2cc(Nc3ncc(C(F)(F)F)c(NCc4cc[nH]n4)n3)ccc2C1 | -0.64 | – | – | – | – | – | – | – | -0.94 | 0.47 | 0.14 | – | 0.87 | -0.24 | 0.56 | 0.37 | 0.22 | – | 0.73 | 0.58 | Growth Rate ([2]; 18 h, replicate number 1): 0.42; Growth Rate ([2]; 24 h, replicate number 1): 0.29; Growth Rate ([3]; 18 h, replicate number 1): 0.84 |
